PubChem BioAssay (NCI)
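Test compounds were applied to cells in 96-well plates for 48 hours at 5 doses. GI50 marks 50% less growth. TGI: concentration producing complete growth inhibition.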

Columns and labels:
Experiment in all cases: inhibition of tumour cell growth, NCI panel, 48 h
[1] = system: HOP-92 NSCLC
[2] = system: NCI-H522 lung
[3] = system: IGROV1 ovarian
[4] = system: NCI-H460 lung
[5] = system: MCF7 breast
[6] = system: SNB-75 CNS
[7] = system: T-47D breast
[8] = system: EKVX NSCLC
[9] = system: OVCAR-4 ovarian
[10] = system: LOX IMVI melanoma
[11] = system: SK-MEL-2 melanoma
[12] = system: K-562 leukemia
[13] = system: HCC-2998 colon
[14] = system: HCT-15 colon
[15] = system: PC-3 prostate
[16] = system: HCT-116 colon
[17] = system: OVCAR-3 ovarian
[18] = system: SF-539 CNS
[19] = system: SNB-19 CNS
[20] = system: HS 578T breast
[21] = system: OVCAR-5 ovarian
[22] = system: HOP-62 NSCLC
[23] = system: NCI-H226 lung
[24] = system: NCI-H23 lung
[25] = system: SF-268 CNS
[26] = system: UO-31 renal
[27] = system: NCI/ADR-RES ovarian
[28] = system: CAKI-1 renal
[29] = system: A549 NSCLC

For Cc1cnc(NC2CCOCC2)nc1-n1cnc(C(=O)N[C@H](CN)c2cc(F)cc(Cl)c2)c1, the GI50 [1] was 0.023 µM, the TGI [1] was 2.12 µM and the GI50 [2] was 8.23 µM. For the same molecule, the TGI [2] was 30.5 µM, the GI50 [3] was 0.0702 µM and the TGI [3] was 13 µM. For the same molecule, the GI50 [4] was 1.05 µM, the TGI [4] was 17.9 µM and the GI50 [5] was 1.58 µM. For the same molecule, the TGI [5] was 15.4 µM, the GI50 [6] was 0.103 µM and the TGI [6] was 8.84 µM. It also gave a GI50 [7] of 13.6 µM, a TGI [7] of 46.6 µM and a GI50 [8] of 0.427 µM. It also gave a TGI [8] of 20.2 µM, a GI50 [9] of 0.506 µM and a TGI [9] of 53.5 µM. It also gave a GI50 [10] of 0.0441 µM, a TGI [10] of 5.88 µM and a GI50 [11] of 0.0186 µM. For the same molecule, the TGI [11] was 0.531 µM, the GI50 [12] was 0.783 µM and the TGI [12] was 14.5 µM. It also gave a GI50 [13] of 0.018 µM, a TGI [13] of 11.6 µM and a GI50 [14] of 3.06 µM. The TGI [14] was 34.3 µM, the GI50 [15] was 4.36 µM and the TGI [15] was 38.5 µM. The GI50 [16] was 0.0177 µM, the TGI [16] was 12.4 µM and the GI50 [17] was 1.94 µM. It also gave a TGI [17] of 22.2 µM, a GI50 [18] of 2.93 µM and a TGI [18] of 17.4 µM. For the same molecule, the GI50 [19] was 13.9 µM, the TGI [19] was over 57.8 µM and the GI50 [20] was 0.871 µM. The TGI [20] was 15.8 µM, the GI50 [21] was 0.0269 µM and the TGI [21] was over 82.8 µM. It also gave a GI50 [22] of 0.154 µM, a TGI [22] of 20.9 µM and a GI50 [23] of 1.36 µM. It also gave a TGI [23] of 10.9 µM, a GI50 [24] of 0.0201 µM and a TGI [24] of 16.5 µM. It also gave a GI50 [25] of 1.86 µM, a TGI [25] of 23.2 µM and a GI50 [26] of 0.903 µM. For the same molecule, the TGI [26] was 5.43 µM, the GI50 [27] was 19.8 µM and the TGI [27] was over 91.9 µM. It also gave a GI50 [28] of 0.237 µM, a TGI [28] of 5.34 µM and a GI50 [29] of 0.216 µM.
